{
  "source": "patent US7247650B2",
  "about": "“Macrolides and methods for producing same” (Wyeth, priority 2004, dated 2007)",
  "molecules": {"B1": {"name": "glial cell line-derived neurotrophic factor (protein, UniProt P39905 78-211, looked up)", "Glial cell line-derived …": "SPDKQMAVLPRRERNRQAAAANPENSRGKGRRGQRGKNRGCVLTAIHLNVTDLGLGYETKEELIFRYCSGSCDAAETTYDKILKNLSRNRRLVSDKVGQACCRPIAFDDDLSFLDDNLVYHILRKHSAKRCGCI", "notes": "glial cell line-derived neurotrophic factor, gives maximum protection in the dopamine uptake assay"}},
  "format_in_all_cases": "cell-based, rat",
  "key": {"[1]": {"tested_on": "cultured cortical neurons", "test": "Neurite outgrowth (total neurite length per cell) in cultured cortical neurons", "design": "unit of the concentration uncertain", "conditions": "72 hours", "protocol": "Dissociated cortical neuron cultures were prepared as previously described (Pong et al., cited above, 2001). Briefly, embryonic day 15 rat fetuses were collected and dissected in ice-cold PBS. Dissected cortices were pooled together and transferred to an enzymatic dissociation medium containing papain. After 30 minutes, the tissue was mechanically triturated with a fire-polished glass Pasteur pipette. Single-cell suspensions in complete media were seeded on poly-L-ornithine and laminin coated 96-well plates. After 24 hours, cultures were treated with various concentrations of the compound of formula I for 72 hours. The cultures were then fixed and stained with an anti-tubulin primary antibody (TUJ-1) and a fluorescent-tagged secondary antibody. Neurite outgrowth was determined by using the Enhanced Neurite Outgrowth (ENO) algorithm with the Cellomics ArrayScan and expressed as total neurite length per cell."}, "[2]": {"tested_on": "cultured dopaminergic neurons", "test": "High-affinity 3H-dopamine uptake after MPP+ induced toxicity", "protocol": "Mesencephalic dopaminergic neuron cultures were prepared as previously described in Pong et al., J Neurochem. 69: 986–994 (1997). Embryonic day 15 (E15) rat fetuses were collected and dissected in ice-cold phosphate-buffered saline (PBS). The ventral piece of tissue compromising the mesencephalic dopaminergic region was dissected out. Dissected pieces of tissue were pooled together and transferred to an enzymatic dissociation medium containing 20 IU/ml papain in Earle's balanced salt solution (Worthington Biochemical, Freehold, N.J., U.S.A.) and incubated for 60 minutes at 37° C. After enzymatic dissociation, the papain solution was aspirated and the tissue mechanically triturated with a fire-polished glass Pasteur pipette in complete medium [equal volumes of minimum essential medium (MEM) and F-12 nutrient mixture (Gibco BRL) supplemented with 0.1 mg/ml apotransferrin and 2.5 μg/ml insulin] containing 2,000 IU/ml DNase and 10 mg/ml ovomucoid protease inhibitor.\nFor dopamine uptake experiments, single-cell suspensions in complete media were seeded on poly-L-ornithine and laminin coated 24-well plates. The cultures were maintained for seven days prior to experimentation. Cultures were pretreated with various concentrations of the compound of formula (I) (washed with PBS and diluted with media to concentrations of 1 nM to 1000 nM) for 24 hours, then exposed to 10 μM the neurotoxin 1-methyl-4-phenylpyridinium (MPP^+) for 1 hour to assess the neuroprotective effect of the compound of formula (I) in cell culture. Following the 1 hour incubation, media was exchanged three times and fresh compound was added for an additional 48 hours.\nMore particularly, after 48 hours growth of mesencephalic dopaminergic neuron cultures following MPP^+ exposure, high-affinity ^3H-dopamine uptake was performed using a modified method described by Prochiantz et al., Nature 293: 570–572 (1981). Cultures were washed with pre-warmed phosphate-buffered saline (PBS) containing 5.6 mM glucose and 1 mM ascorbic acid. Cultures were then incubated for 15 minutes at 37° C. with 50 nM ^3H-dopamine (31 Ci/mmol, Du Pont-NEN, Wilmington, Del., U.S.A.). The cultures were washed twice with buffer and lysed with 0.5 N NaOH. The lysate was transferred to a scintillation vial containing Ultima Gold scintillation cocktail and radioactivity was determined with a liquid scintillation counter. Alternatively, culture lysates can be washed twice with buffer, incubated for 2 hours at room temperature with Optiphase Supermix scintillation cocktail (Wallac Scintillation Products, Gaithersburg, Md., USA), and radioactivity measured with a liquid scintillation counter."}, "[3]": {"tested_on": "cultured cortical neurons", "test": "Neurofilament content in cultured cortical neurons", "protocol": "Dissociated cortical neuron cultures were prepared as previously described [Pong et al., Exp Neurol. 2001 September; 171(1):84–97 (2001)]. Briefly, embryonic day 15 rat fetuses were collected and dissected in ice-cold PBS. Dissected cortices were pooled together and transferred to an enzymatic dissociation medium containing papain. After 30 min, the tissue was mechanically triturated with a fire-polished glass Pasteur pipette. Single-cell suspensions in complete media were seeded on poly-L-ornithine and laminin coated 96-well plates. 24 hours later, cultures were treated with various concentrations of compound of formula (I) for 72 hours. The cultures were then fixed and stained with a neurofilament primary antibody and a peroxidase-tagged secondary antibody. A peroxidase substrate (K-Blue Max) was added and the colorimetric change was measure on a colorimetric plate reader."}, "[4]": {"tested_on": "cultured dorsal root ganglia", "test": "Neurite outgrowth (total neurite length per cell) in cultured dorsal root ganglia", "design": "unit of the concentration uncertain", "conditions": "72 hours", "protocol": "Dissociated dorsal root ganglia cultures were prepared as previously described [A. Wood et al., “Stimulation of neurite outgrowth by immunophilin ligands: quantitative analysis by Cellomics Array scan” Society for Neuroscience (2004), abstract 104.3] Briefly, postnatal day 3–5 rat pups were euthanized. The spinal columns were removed and individual dorsal root ganglia (DRG) were dissected out. Dissected DRG were pooled together and transferred to an enzymatic dissociation medium containing papain. After 60 minutes, the tissue was mechanically triturated with a fire-polished glass Pasteur pipette. Single-cell suspensions in complete media were seeded on poly-L-ornithine and laminin coated 96-well plates. After 24 hours, cultures were treated with various concentrations of the compound of formula I for 72 hours. The cultures were then fixed and stained with an anti-tubulin primary antibody (TUJ-1) and a fluorescent-tagged secondary antibody. Neurite outgrowth was determined by using the Enhanced Neurite Outgrowth (ENO) algorithm with the Cellomics ArrayScan and expressed as total neurite length per cell."}},
  "data": [
    {"molecule": "CC/C1=C\\CC(/C(C)=C/C(C)C(C)O)OC(=O)C2CCCN2C(=O)C(=O)C2(O)OC(CCC2C)CC(O)C(C)C(O)CC(O)CC(O)/C(C)=C/C(C)CC(C)C1O", "note": "(stereo not shown) [Compound (I), prolylmeridamycin]", "values": [
      {"measurement": "Total Neurite Length (% Above Control)", "setting": "[1]; 10 nM", "result": 30, "unit": "% Above Control"},
      {"measurement": "Total Neurite Length (% Above Control)", "setting": "[1]; 100 nM", "result": 51, "unit": "% Above Control"},
      {"measurement": "Total Neurite Length (% Above Control)", "setting": "[1]; 1 (unit uncertain)", "result": 120, "unit": "% Above Control"},
      {"measurement": "Total Neurite Length (% Above Control)", "setting": "[1]; 10 (unit uncertain)", "result": 178, "unit": "% Above Control"},
      {"measurement": "3H-DOPAMINE UPTAKE (% UNTREATED CONTROL)", "setting": "[2]; 1 nM compound, 24 h pretreatment, 10 μM MPP+ 1 hour, 48 h after", "result": 45, "unit": "% UNTREATED CONTROL"},
      {"measurement": "3H-DOPAMINE UPTAKE (% UNTREATED CONTROL)", "setting": "[2]; 10 nM compound, 24 h pretreatment, 10 μM MPP+ 1 hour, 48 h after", "result": 52, "unit": "% UNTREATED CONTROL"},
      {"measurement": "3H-DOPAMINE UPTAKE (% UNTREATED CONTROL)", "setting": "[2]; 100 nM compound, 24 h pretreatment, 10 μM MPP+ 1 hour, 48 h after", "result": 61, "unit": "% UNTREATED CONTROL"},
      {"measurement": "3H-DOPAMINE UPTAKE (% UNTREATED CONTROL)", "setting": "[2]; 1000 nM compound, 24 h pretreatment, 10 μM MPP+ 1 hour, 48 h after", "result": 72, "unit": "% UNTREATED CONTROL"},
      {"measurement": "EC50", "setting": "[2]; Rattus norvegicus, Neuron, relative to maximum protection (84% uptake) afforded by 10 ng/mL GDNF, read-out: EC50, neuroprotection against MPP+-induced neurotoxicity", "result": 110, "unit": "nM"},
      {"measurement": "potency compared with meridamycin", "setting": "[2]; similar study with meridamycin", "result": "more potent"},
      {"measurement": "NEUROFILAMENT CONTENT (FOLD-INCREASE ABOVE UNTREATED CONTROL)", "setting": "[3]; 10 nM, 72 hours", "result": "1.54 FOLD-INCREASE ABOVE UNTREATED CONTROL"},
      {"measurement": "NEUROFILAMENT CONTENT (FOLD-INCREASE ABOVE UNTREATED CONTROL)", "setting": "[3]; 100 nM, 72 hours", "result": "2.22 FOLD-INCREASE ABOVE UNTREATED CONTROL"},
      {"measurement": "NEUROFILAMENT CONTENT (FOLD-INCREASE ABOVE UNTREATED CONTROL)", "setting": "[3]; 1 μM, 72 hours", "result": "2.34 FOLD-INCREASE ABOVE UNTREATED CONTROL"},
      {"measurement": "NEUROFILAMENT CONTENT (FOLD-INCREASE ABOVE UNTREATED CONTROL)", "setting": "[3]; 10 μM, 72 hours", "result": "2.26 FOLD-INCREASE ABOVE UNTREATED CONTROL"},
      {"measurement": "EC50", "setting": "[3]; Rattus norvegicus, Cortical neurone, 72 hours, neurofilament content, read-out: EC50, increased neuronal survival in cultured cortical neurons", "result": 21, "unit": "nM"},
      {"measurement": "potency compared with meridamycin", "setting": "[3]; similar study with meridamycin", "result": "more potent"},
      {"measurement": "Total Neurite Length (% Above Control)", "setting": "[4]; 10 nM", "result": 2, "unit": "% Above Control"},
      {"measurement": "Total Neurite Length (% Above Control)", "setting": "[4]; 100 nM", "result": 7, "unit": "% Above Control"},
      {"measurement": "Total Neurite Length (% Above Control)", "setting": "[4]; 1 (unit uncertain)", "result": 21, "unit": "% Above Control"},
      {"measurement": "Total Neurite Length (% Above Control)", "setting": "[4]; 10 (unit uncertain)", "result": 44, "unit": "% Above Control"}
    ]},
    {"molecule": "C[n+]1ccc(-c2ccccc2)cc1", "note": "[MPP^+, 1-methyl-4-phenylpyridinium, reference compound]", "values": [
      {"measurement": "3H-DOPAMINE UPTAKE (% UNTREATED CONTROL)", "setting": "[2]; 10 μM MPP+ for 1 hour, no test compound", "result": 40, "unit": "% UNTREATED CONTROL"}
    ]},
    {"molecule": "B1", "values": [
      {"measurement": "maximum protection (% uptake)", "setting": "[2]; 10 ng/mL GDNF, MPP+-induced neurotoxicity", "result": 84, "unit": "% uptake"}
    ]}
  ]
}
